Data on 7 compounds can be found in article PMC8894567 (The Journal of Antibiotics, 2022).

Experiment [1] relates to influenza virus A/Puerto Rico/8/34 (H1N1). In kind it is cell-based.
In another experiment the test system is herpes virus. Particulars: read-out: EC50 antiherpetic; cited from earlier work.
For a further experiment, the system named is HIV. Particulars: read-out: EC50 anti-HIV activity; cited from earlier work.
The subject of the next experiment is influenza type B. Particulars: cited from earlier work.
Another experiment has as its system influenza type A virus. Particulars: cited from earlier work.
The test system of another experiment is Flu A H1N1 strain. Particulars: cited from earlier work.
The next experiment concerns influenza virus A H7N1. Particulars: cited from earlier work.

Take `CC(N)C12CC3CC(CC(C3)C1)C2` (stereo not drawn) [Rimantadine]: in experiment [1], the “SI, selectivity index CC50/IC50” value was determined as 5.
Consider “Ethyl β-alaninate diamide 2,3 seco-lupane”, for which the EC50 is 4.1 µM with herpes virus and 5.1 µM in the experiment on HIV.
With Alnincanone, the protection index is 80% in the experiment with influenza type B and 60% in the experiment on influenza type A virus.
Turning to “lupane 3,4-seco-3,28-bis-N,N-methylpiperazine-amide”, the IC50 with Flu A H1N1 strain was 27 µM.
As for “3-oxime of betulonic acid and L-leucine-28-amide”, in the experiment on influenza virus A H7N1, the EC50 is 2170 nM and the “suppression of influenza virus A H7N1” value is 90%.
Consider `COC(=O)[C@]12CC[C@@H](C)[C@H](C)[C@H]1C1=CC[C@@H]3[C@@]4(C)CC[C@H](O)C(C)(C)[C@@H]4CC[C@@]3(C)[C@]1(C)CC2` [methyl ester of ursolic acid], for which the protection index is reported as 80% in the experiment on influenza type B and 60% with influenza type A virus.
On to echinocystic acid, for which the results for the protection index with influenza type B and in the experiment on influenza type A virus were 80% and 60%, respectively.
